Where a SMILES comes first, the peptide text is derived from it.
Experiments:
proteases = assay: Stability of the dipeptides during enzymatic hydrolysis of whey protein (detection by GPC / LC-ESI-TOF-MS); settings: hydrolysis with trypsin, Alcalase, Flavourzyme; found by GPC in all hydrolysates after three hours
Experimental: The whey protein Milei60 was hydrolyzed enzymatically by proteolytically acting enzymes, i.e., trypsin obtained from porcine pancreas (EC 3.4.21.4) as well as two further proteases, i.e., Alcalase® (Bacillus licheniformis) and Flavourzyme (Aspergillus oryzae). The following Table illustrates how hydrolysis is carried out.
The release of dipeptides Trp-Leu and Ile-Trp according to the invention during the course of hydrolysis was analyzed by GPC and LC-ESI-TOF-MS (liquid chromatography/electrospray ionization time of flight mass spectrometry).
In GPC the identification of the dipeptides was carried out by comparison with peaks of the standard peptides that were carried along.
The strongly ACE-inhibiting peptide Ile-Trp was detected unequivocally in the hydrolysates after a hydrolysis duration of three hours. Therefore, it appears to be accessible for the proteases only after a certain time has lapsed; this is true also for Trp-Leu.

ACE = molecular target: T1, ACE (Oryctolagus cuniculus, UniProt P12822); assay: ACE activity test (substrate HHL, hippuric acid quantified by RP HPLC); format: biochemical, rabbit; settings: for IC50: dipeptides from Bachem, test as in Example 2, read-out: IC50 [μM] ACE-inhibiting activity; for ACE inhibiting action (in words): samples heat-treated at 100° C. for 10 minutes
T1 construct: The employed ACE is the rabbit lung enzyme obtained from Sigma-Aldrich; purchased Sigma-Aldrich; host or cells: rabbit lung (tissue-derived enzyme)
T1 sequence (P12822 34-1310): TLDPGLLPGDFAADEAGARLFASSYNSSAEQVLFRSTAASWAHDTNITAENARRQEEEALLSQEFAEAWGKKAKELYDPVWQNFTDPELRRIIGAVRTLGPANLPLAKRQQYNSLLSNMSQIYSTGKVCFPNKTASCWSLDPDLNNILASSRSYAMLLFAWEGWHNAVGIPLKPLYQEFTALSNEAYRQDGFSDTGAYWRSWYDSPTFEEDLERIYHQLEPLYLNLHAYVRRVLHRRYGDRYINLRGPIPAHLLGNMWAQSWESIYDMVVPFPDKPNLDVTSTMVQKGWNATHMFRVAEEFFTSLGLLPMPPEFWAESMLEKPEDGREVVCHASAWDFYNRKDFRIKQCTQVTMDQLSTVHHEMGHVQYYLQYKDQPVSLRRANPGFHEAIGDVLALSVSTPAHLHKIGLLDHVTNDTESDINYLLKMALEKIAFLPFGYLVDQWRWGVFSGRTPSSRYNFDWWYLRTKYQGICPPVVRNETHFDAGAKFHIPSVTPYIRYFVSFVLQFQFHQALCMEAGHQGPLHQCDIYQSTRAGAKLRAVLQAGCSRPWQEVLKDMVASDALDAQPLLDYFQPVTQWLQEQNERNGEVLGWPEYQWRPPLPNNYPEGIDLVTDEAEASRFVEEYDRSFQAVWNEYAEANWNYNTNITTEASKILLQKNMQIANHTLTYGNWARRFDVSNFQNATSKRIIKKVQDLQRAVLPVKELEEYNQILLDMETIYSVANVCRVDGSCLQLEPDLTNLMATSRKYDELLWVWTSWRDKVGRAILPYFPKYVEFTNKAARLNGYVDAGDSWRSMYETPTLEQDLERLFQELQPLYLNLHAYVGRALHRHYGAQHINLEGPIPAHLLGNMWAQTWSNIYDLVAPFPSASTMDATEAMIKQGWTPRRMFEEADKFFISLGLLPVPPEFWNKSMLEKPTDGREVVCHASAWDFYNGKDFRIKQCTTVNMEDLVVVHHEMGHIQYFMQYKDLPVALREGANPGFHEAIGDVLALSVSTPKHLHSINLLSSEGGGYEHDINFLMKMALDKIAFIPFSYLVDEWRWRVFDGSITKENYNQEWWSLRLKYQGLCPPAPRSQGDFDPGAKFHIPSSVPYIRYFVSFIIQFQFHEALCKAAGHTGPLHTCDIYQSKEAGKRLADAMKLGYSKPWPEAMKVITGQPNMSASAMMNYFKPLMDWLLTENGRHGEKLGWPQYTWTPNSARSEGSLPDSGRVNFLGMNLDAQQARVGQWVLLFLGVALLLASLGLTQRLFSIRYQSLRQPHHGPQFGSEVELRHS
Experimental: The determination of the ACE activity of the protein hydrolysates was carried out similar to a test disclosed by Cushman and Cheung in […] (Cushman, D. W. and Cheung, H.-S. Spectrophotometric Assay and Properties of Angiotensin-Converting Enzyme of Rabbit Lung, Biochemical Pharmacology, 1971, 20, 1637-1648). However, several modifications were carried out. The employed ACE is the rabbit lung enzyme obtained from Sigma-Aldrich. As a substrate N-benzoyl-glycyl-L-histidyl-L-leucin (HHL) was used which is considered to be analog to the natural substrate angiotensin I. ACE catalyzes the hydrolysis to L-histidyl-L-leucin (HL) and N-benzoyl-glycin (hippuric acid):
Since hippuric acid is UV-active (λmax=228 nm), it is possible, based on its contents determined by RP HPLC, to define the conversion rate and thus the enzyme activity. By means of a concentration series of the respective inhibitor solution, the inhibitor concentration can be determined that is required for lowering the ACE activity by one half (IC50).
In each series of measurements two enzyme blind values were carried along in which, in place of the sample solution, the same volume of double distilled water had been added. The blind value corresponds to 100% ACE activity. Calculation of the IC50 values was done by the software program SigmaPlot 5.0.
In addition to the samples that had been incubated for different lengths of time, also a blind value sample was analyzed that contained all employed enzymes and the whey protein powder in the same concentration as the hydrolysis samples. However, after addition of all substances, the enzymatic action was inactivated immediately by 10-minute incubation at 100° C. Also, possible effects by individual compounds on ACE were tested. For this purpose, the enzymes were inactivated and individually tested with respect to possible ACE inhibiting action. The same procedure was carried out with the whey protein powder. Whey protein powder that was not heat-treated was also tested with respect to its inhibiting action. For the determination of the IC50 value of the hydrolysis samples several concentrations were used in the ACE activity test. A protein concentration of 1000 mg protein/I was used as the basis. This parent solution was diluted 1:2, 1:5, 1:10, 1:20, 1:50, 1:100 and all solutions were tested with respect to their ACE inhibiting effect. Evaluation was also done with SigmaPlot 5.0.
In Table 12 the parameters measured by RP HPLC and LC-ESI-TOF-MS for the dipeptides according to the invention are listed. The Table contains also the IC50 values that were obtained for the dipeptides. […]

[1] = tested on: spontaneously hypertensive rats; assay: Feeding tests on spontaneously hypertensive rats; format: in vivo, rat
Source text: Administered was a preparation that contained the peptides according to the invention (PP), feed with intact whey protein (MP) as well as, as a control, a rat feed with captopril, a known ACE inhibiting agent as well as a placebo.
The basic importance of whey protein hydrolysates containing the tryptophan-containing peptides of the present invention for affecting the arterial blood pressure was objectified in animal tests on spontaneously hypertensive rats (FIG. 4). Here, the whey protein hydrolysate in comparison to a control diet caused a significant lowering of systolic blood pressure by 21±6 mm Hg after 7 weeks. Feeding captopril (ACE inhibitor of the first generation) lowered over the same time period the blood pressure by 28±7 mm Hg.
This implies comprehensive heart-protective and vessel-protective effects caused by the whey protein hydrolysate.

CC(C)C[C@H](NC(=O)[C@@H](N)Cc1c[nH]c2ccccc12)C(=O)O [Trp-Leu] (H-Trp-Leu-OH; N-terminus and C-terminus assumed)
stability with respect to further digestion to the amino acids (proteases): stable with respect to further digestion to the amino acids
IC50 (ACE): 10 µM

CC[C@H](C)[C@H](N)C(=O)N[C@@H](Cc1c[nH]c2ccccc12)C(=O)O [Ile-Trp]
stability with respect to further digestion to the amino acids (proteases): stable with respect to further digestion to the amino acids
IC50 (ACE): 0.7 µM

C[C@H](CS)C(=O)N1CCC[C@H]1C(=O)O [captopril]
lowering of systolic blood pressure ([1]; after 7 weeks, in comparison to a control diet): 28±7 mm Hg
reduced heart mass ([1]; in comparison to controls): 16%

B1: trypsin: trypsin obtained from porcine pancreas (EC 3.4.21.4), heat-inactivated hydrolysis enzyme (protein, UniProt P00761 9-231, looked up)
Trypsin: IVGGYTCAANSIPYQVSLNSGSHFCGGSLINSQWVVSAAHCYKSRIQVRLGEHNIDVLEGNEQFINAAKIITHPNFNGNTLDNDIMLIKLSSPATLNSRVATVSLPRSCAAAGTECLISGWGNTKSSGSSYPSLLQCLKAPVLSDSSCKSSYPGQITGNMICVGFLEGGKDSCQGDSGGPVVCNGQLQGIVSWGYGCAQKNKPGVYTKVCNYVNWIQQTIAAN
ACE inhibiting action (in words) (ACE): neither the inactivated enzymes, individually or as a mixture, nor the protein had an effect on ACE

B2: Alcalase: protease from Bacillus licheniformis, heat-inactivated hydrolysis enzyme (protein, UniProt P00780 106-379, looked up)
Subtilisin Carlsberg: AQTVPYGIPLIKADKVQAQGFKGANVKVAVLDTGIQASHPDLNVVGGASFVAGEAYNTDGNGHGTHVAGTVAALDNTTGVLGVAPSVSLYAVKVLNSSGSGSYSGIVSGIEWATTNGMDVINMSLGGASGSTAMKQAVDNAYAKGVVVVAAAGNSGSSGNTNTIGYPAKYDSVIAVGAVDSNSNRASFSSVGAELEVMAPGAGVYSTYPTNTYATLNGTSMASPHVAGAAALILSKHPNLSASQVRNRLSSTATYLGSSFYYGKGLINVEAAAQ
ACE inhibiting action (in words) (ACE): neither the inactivated enzymes, individually or as a mixture, nor the protein had an effect on ACE

Source: US20140179609A1, “Whey protein hydrolysate containing tryptophan peptide consisting of alpha lactalbumin and the use thereof” (Technische Universität Dresden, priority 2008, published 2014)
